# From PMC5668434, “Modulation of telomere protection by the PI3K/AKT pathway” (Nature Communications, 2017)
# Read-outs that look alike come from different tables or passages of the source.
# Assays:
# mTOR = details: reported in literature; cited from earlier work
# mTOR (FRAP1) = target: T1, mTOR (FRAP1) (Homo sapiens, UniProt P42345); assay: mTOR biochemical assay (LanthaScreen); details: for IC50: internal data
# T1 construct: purchased ThermoFisher PV4753
# PI3Kα = details: reported in literature, cited from earlier work
# PI3Kβ = details: reported in literature, cited from earlier work
# PI3Kγ = details: reported in literature, cited from earlier work
# [1] = tested on: TRF1 foci in CHA-9.3 mouse lung tumor cell line; assay: TRF1 foci immunofluorescence in CHA-9.3 cells; format: cell-based; details: for Inhibition of TRF1 foci (in words): 10 μM (GSK-2126458 1.0 μM)
# Protocol: TRF1 immunofluorescence of TRF1 was performed in lung tumor-derived cell line (CHA9.3) and in MEFs[39]. A rat monoclonal antibody against mouse TRF1 developed by the Monoclonal antibody unit at CNIO was used to detect endogenous TRF1 (1:500). GFP-TRF1 fluorescence was directly measured in cells fixed in paraformaldehyde. For quantification of TRF1 foci intensity, pictures of fixed cells were automatically acquired from each well by the Opera HCS system (Perkin Elmer). Sixty images of random fields per well, with a 40× magnification lens, were taken under non-saturating conditions. At least 1 × 10^3 cells were analyzed for each well. Briefly, images were segmented using the DAPI staining to generate masks matching cell nuclei from which-TRF1 foci were analyzed.
# PI3Kδ = details: reported in literature, cited from earlier work
# [2] = tested on: p-AKT S473 in CHA-9.3 mouse lung cancer cell line; assay: Western blot of AKT phosphorylation at Ser473 in CHA-9.3 cells; format: cell-based; details: for p-AKT S473 inhibition (in words): 10 μM time course; for inhibition at 10 µM: Mus musculus, read-out: Inhibition pAKT (Ser 473) with regard to DMSO
# Protocol: These new chemical probes were prepared by replacement of a single key oxygen atom from the morpholine moiety by a methylene group, generating the piperidine derivatives ETP-51259 and ETP-50952 (Fig. 1a). To assess their PI3K cellular activity, we measured phosphorylation of residue Ser473 in AKT (p-AKT S473), a PI3K downstream target[61]–[63], by western blot analysis. To this end, we used the CHA-9.3 mouse lung cancer cell line previously generated by us[39]. […] Of note, the inhibitory activity of ETP-47037 was more prolonged than that of ETP-47228. Thus, ETP-47037 mediated p-AKT S473 inhibition was maintained during the 24-hour treatment while the ETP-47228 mediated inhibition decreased 35% after 24 h as compared to 1-h treatment but still was able to inhibit the pathway above 50% (Fig. 1c).
# For detection of AKT, PRAS40 (T246) and pS6 in CHA9.3 cells, untreated control (DMSO) or treated with the indicated inhibitors, were lysed in RIPA buffer supplemented with 100 mM pefablock (Roche Diagnostics) and protease inhibitor cocktail (Roche Molecular Biochemicals). Proteins were resolved on 10% SDS-PAGE, and transferred to nitrocellulose membrane (Amersham^TM Protan^TM 0.2 µm nNC). Membranes were incubated with antibodies against phospho-AKT (Ser473), AKT, phospo-S6 (Ser 235/236), and S6Ribosomal from Cell Signaling, phospo-PRAS40 (Thr246) from BIOSURCE and anti α-tubulin form Sigma, overnight at 4 °C. After washing, blots were incubated with secondary antibody: Alexa Fluor 680 goat anti-rabbit IgG (Invitrogen) or anti-mouse IgG DyLight 800 conjugated (Thermo Scientific), and visualized using an Odyssey infrared imaging system (Li-Cor Biosciences).
# PI3K (p110α) = target: T2, PI3K (p110α) (Homo sapiens, UniProt P42336); assay: PI3K alpha biochemical assay (ADP Hunter Plus); details: for IC50: internal data, read-out: PI3Kα IC50
# T2 construct: purchased Cama Biosciences (sic; Carna Biosciences) #07CBS-0402A
# [3] = tested on: TRF1 mRNA in CHA 9-3 lung cancer cells; assay: TRF1 mRNA by qPCR; format: cell-based, mouse; details: 10 μM, 24 h
# [4] = target: the molecule itself; assay: western blot after SDS-PAGE in non-reducing conditions; nuclear extracts of Trf1-deleted MEFs expressing the GFP-tagged TRF1 variant, prepared without dithiothreitol and 2-mercaptoethanol, not heated before gel loading; blot against TRF1; one wild-type sample in reducing conditions shows the monomer
# T1 sequence (P42345 1360-2549 limits assumed): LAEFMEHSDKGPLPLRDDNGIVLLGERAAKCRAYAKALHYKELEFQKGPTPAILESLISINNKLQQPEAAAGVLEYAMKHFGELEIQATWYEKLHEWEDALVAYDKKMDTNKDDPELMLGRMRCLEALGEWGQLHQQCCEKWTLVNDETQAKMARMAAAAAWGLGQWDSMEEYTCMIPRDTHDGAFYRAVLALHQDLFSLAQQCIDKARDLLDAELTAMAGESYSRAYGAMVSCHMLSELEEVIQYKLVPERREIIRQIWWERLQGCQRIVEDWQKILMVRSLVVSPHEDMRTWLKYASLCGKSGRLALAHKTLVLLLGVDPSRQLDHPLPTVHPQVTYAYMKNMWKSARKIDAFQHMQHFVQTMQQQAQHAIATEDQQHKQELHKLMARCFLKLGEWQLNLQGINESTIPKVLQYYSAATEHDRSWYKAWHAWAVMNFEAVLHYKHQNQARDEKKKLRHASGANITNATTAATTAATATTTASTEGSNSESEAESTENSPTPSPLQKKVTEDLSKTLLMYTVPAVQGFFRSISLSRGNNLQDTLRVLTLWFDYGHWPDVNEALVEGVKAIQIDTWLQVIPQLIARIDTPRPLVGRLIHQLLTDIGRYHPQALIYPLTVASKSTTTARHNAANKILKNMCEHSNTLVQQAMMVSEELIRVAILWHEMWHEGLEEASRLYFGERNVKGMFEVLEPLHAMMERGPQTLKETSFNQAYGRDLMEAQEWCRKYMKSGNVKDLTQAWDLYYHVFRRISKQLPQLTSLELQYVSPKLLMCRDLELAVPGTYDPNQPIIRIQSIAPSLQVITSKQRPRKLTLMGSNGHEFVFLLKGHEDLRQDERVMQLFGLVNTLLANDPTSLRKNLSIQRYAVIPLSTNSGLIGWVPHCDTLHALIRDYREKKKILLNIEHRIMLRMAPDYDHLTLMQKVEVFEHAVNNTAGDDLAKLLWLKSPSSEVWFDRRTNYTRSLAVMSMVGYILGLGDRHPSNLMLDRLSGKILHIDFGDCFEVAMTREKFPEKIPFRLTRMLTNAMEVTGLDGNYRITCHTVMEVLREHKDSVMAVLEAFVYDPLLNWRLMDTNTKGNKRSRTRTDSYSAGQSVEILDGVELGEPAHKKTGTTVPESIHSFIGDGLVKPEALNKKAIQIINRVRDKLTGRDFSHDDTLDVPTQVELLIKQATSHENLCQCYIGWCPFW
# T2 sequence (P42336 whole entry): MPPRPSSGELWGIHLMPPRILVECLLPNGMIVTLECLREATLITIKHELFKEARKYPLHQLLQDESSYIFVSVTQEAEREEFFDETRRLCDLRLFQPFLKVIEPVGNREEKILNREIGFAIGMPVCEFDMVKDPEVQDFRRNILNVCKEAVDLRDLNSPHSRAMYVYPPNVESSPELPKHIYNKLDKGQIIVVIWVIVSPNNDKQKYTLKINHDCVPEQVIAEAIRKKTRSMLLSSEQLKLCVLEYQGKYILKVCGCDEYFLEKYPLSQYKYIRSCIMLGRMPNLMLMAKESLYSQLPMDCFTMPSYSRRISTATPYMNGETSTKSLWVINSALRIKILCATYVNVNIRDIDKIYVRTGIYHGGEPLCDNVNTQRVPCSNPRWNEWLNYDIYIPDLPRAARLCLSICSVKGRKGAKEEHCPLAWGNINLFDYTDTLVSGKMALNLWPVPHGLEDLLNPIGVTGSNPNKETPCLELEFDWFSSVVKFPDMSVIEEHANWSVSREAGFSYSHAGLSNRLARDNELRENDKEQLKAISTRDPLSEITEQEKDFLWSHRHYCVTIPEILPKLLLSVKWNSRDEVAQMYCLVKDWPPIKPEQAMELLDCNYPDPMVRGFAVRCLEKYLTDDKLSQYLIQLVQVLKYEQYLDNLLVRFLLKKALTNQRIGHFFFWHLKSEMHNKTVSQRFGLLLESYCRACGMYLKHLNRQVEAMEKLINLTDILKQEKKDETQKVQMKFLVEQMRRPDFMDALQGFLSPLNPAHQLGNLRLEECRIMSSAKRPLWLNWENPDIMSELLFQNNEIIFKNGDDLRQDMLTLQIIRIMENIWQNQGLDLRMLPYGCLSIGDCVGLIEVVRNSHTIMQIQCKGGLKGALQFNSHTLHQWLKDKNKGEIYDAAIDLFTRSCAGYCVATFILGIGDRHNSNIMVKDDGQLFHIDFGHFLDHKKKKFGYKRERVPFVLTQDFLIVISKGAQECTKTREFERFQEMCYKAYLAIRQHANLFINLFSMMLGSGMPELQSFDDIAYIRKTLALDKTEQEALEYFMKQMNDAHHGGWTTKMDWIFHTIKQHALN
# T2 sequence (P27986 whole entry partner): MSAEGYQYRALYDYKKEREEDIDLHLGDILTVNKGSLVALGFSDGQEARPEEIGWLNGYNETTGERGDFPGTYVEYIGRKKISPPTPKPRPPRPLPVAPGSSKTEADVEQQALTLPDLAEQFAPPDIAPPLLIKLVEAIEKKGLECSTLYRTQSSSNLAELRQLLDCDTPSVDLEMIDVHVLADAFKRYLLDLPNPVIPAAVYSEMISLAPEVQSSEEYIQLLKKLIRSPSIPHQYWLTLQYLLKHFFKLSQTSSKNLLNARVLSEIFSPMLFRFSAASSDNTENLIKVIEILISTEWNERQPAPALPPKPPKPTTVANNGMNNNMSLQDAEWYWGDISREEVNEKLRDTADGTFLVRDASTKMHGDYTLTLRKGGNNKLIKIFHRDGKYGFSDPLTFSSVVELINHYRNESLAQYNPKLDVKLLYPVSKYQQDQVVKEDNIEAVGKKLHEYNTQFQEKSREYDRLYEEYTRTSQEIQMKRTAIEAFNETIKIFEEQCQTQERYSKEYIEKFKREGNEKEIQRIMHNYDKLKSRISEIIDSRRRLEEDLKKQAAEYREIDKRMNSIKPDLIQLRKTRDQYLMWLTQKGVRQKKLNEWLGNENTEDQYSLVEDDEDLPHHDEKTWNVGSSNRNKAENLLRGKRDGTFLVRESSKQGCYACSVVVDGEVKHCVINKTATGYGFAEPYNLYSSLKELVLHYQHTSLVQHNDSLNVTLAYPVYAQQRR
molecule,measurement,setting,value
Cn1c(=O)n(-c2ccc(C(C)(C)C#N)cc2)c2c3cc(-c4cnc5ccccc5c4)ccc3ncc21 [BEZ-235],IC50,mTOR,[…]
same,mTOR inhibition (in words),mTOR (FRAP1),potent nanomolar mTOR inhibition
same,IC50,PI3Kα,4 nM
same,IC50,PI3Kβ,5 nM
same,IC50,PI3Kγ,75 nM
"CC(C)C[C@H](NC(=O)[C@H](Cc1ccccc1)NC(=O)c1cnccn1)B(O)O [Bortezomib, reference compound]",TRF1 intensity levels,"[1]; bortezomib 50 nM, CHA 9-3",twofold increase
COCCNC(=O)c1nc2c(N3CCOCC3)nc(-c3cnc(N)nc3)cn2c1C [ETP-46992],IC50,mTOR,> 3000 nM
same,IC50,mTOR (FRAP1),3.69 µM
same,Ki,PI3Kα; read-out: Reported data PI3Kα Kiapp,2.4 nM
Cc1cnc2c(N3CCCCC3)nc(-c3ccc(NC(=O)Nc4ccc(C(=O)N5CCN(C)CC5)cc4)cc3)cn12 [ETP-50952],Inhibition of TRF1 foci (in words),"[1]; 24 h, CHA-9.3",negligible inhibition of TRF1 foci
same,IC50,mTOR (FRAP1),> 10 µM
same,p-AKT S473 inhibition (in words),[2],largely unaffected
same,inhibition at 10 µM,"[2]; 1 h, 1 h",38%
same,inhibition at 10 µM,"[2]; 4 h, 4 h",18%
same,inhibition at 10 µM,"[2]; 24 h, 24 h",10%
same,Activity against PI3K (in words),PI3K (p110α),negligible activity against PI3K
same,IC50,PI3K (p110α),9 µM
CS(=O)(=O)N1CCN(Cc2cc3c(N4CCCCC4)nc(-c4cnc(N)nc4)cn3n2)CC1 [ETP-51259],Inhibition of TRF1 foci (in words),"[1]; 24 h, CHA-9.3",negligible inhibition of TRF1 foci
same,IC50,mTOR (FRAP1),> 10 µM
same,p-AKT S473 inhibition (in words),[2],largely unaffected
same,inhibition at 10 µM,"[2]; 1 h, 1 h",48%
same,inhibition at 10 µM,"[2]; 4 h, 4 h",49%
same,inhibition at 10 µM,"[2]; 16 h, 16 h",4%
same,Activity against PI3K (in words),PI3K (p110α),negligible activity against PI3K
same,IC50,PI3K (p110α),> 10 µM
"CS(=O)(=O)N1CCN(Cc2cc3nc(-c4cccc5[nH]ncc45)nc(N4CCOCC4)c3s2)CC1 [GDC-0941, 2-(1H-indazol-4-yl)-6-(4-methanesulfonyl-piperazin-1-ylmethyl)-4-morpholin-4-yl-t hieno[3,2-d]pyrimidine]",IC50,PI3Kδ,[…]
same,TRF1 mRNA levels,[3],None of the inhibitors significantly affected
"Cc1cc(C(C)Nc2ccccc2)c2nc(N3CCOCC3)cc(=O)n2c1 (stereo not drawn) [TGX-221, reference compound]",inhibition at 10 µM,"[1]; Mus musculus, 10 μM, 24 h, CHA-9.3, relative to DMSO, read-out: Inhibition of TRF1 foci fluorescence",[…]
same,Phosphorylation of AKT (p-AKT S473) (in words),"[2]; 10 μM (GSK-2126458 1.0 μM), 24 h",moderate inhibition
same,PI3Kα inhibition (in words),PI3K (p110α),negligible PI3Kα inhibition
"eGFP-tagged TRF1 wild type (natural protein, mouse, UniProt P70371 1-421, looked up, insert of the retroviral vector eGFP-TRF1 pWzl-Hygro; also called GFP-TRF1; eGFP-TRF1; source: Trf1 lox/lox MEFs, retroviral transduction (eGFP-TRF1 pWzl-Hygro), endogenous Trf1 deleted with Cre, in nuclear extract) MAETVSSAARDAPSREGWTDSDSPEQEEVGDDAELLQCQLQLGTPREMENAELVAEVEAVAAGWMLDFLCLSLCRAFRDGRSEDFRRTRDSAEAIIHGLHRLTAYQLKTVYICQFLTRVASGKALDAQFEVDERITPLESALMIWNSIEKEHDKLHDEIKNLIKIQAVAVCMEIGSFKEAEEVFERIFGDPEFYTPLERKLLKIISQKDVFHSLFQHFSYSCMMEKIQSYVGDVLSEKSSTFLMKAATKVVENEKARTQASKDRPDATNTGMDTEVGLNKEKSVNGQQSTETEPLVDTVSSIRSHKNALSQLKHRRAPSDFSRNEARTGTLQCETTMERNRRTSGRNRLCVSENQPDTDDKSGRRKRQTWLWEEDRILKCGVKKYGEGNWAKILSHYKFNNRTSVMLKDRWRTMKRLKLIS",stoichiometry N,[4],2
"eGFP-tagged TRF1 T330A/S344A (natural protein, mouse, UniProt P70371 1-421, looked up, insert of the retroviral vector eGFP-TRF1 pWzl-Hygro with T330A and S344A; Made by site-directed mutagenesis of the vector of m1 with the primers mTRF1-T330A and mTRF1-S344A; also called TRF1 double mutant; GFP-TRF1 T330A/S344A) MAETVSSAARDAPSREGWTDSDSPEQEEVGDDAELLQCQLQLGTPREMENAELVAEVEAVAAGWMLDFLCLSLCRAFRDGRSEDFRRTRDSAEAIIHGLHRLTAYQLKTVYICQFLTRVASGKALDAQFEVDERITPLESALMIWNSIEKEHDKLHDEIKNLIKIQAVAVCMEIGSFKEAEEVFERIFGDPEFYTPLERKLLKIISQKDVFHSLFQHFSYSCMMEKIQSYVGDVLSEKSSTFLMKAATKVVENEKARTQASKDRPDATNTGMDTEVGLNKEKSVNGQQSTETEPLVDTVSSIRSHKNALSQLKHRRAPSDFSRNEARTGALQCETTMERNRRTAGRNRLCVSENQPDTDDKSGRRKRQTWLWEEDRILKCGVKKYGEGNWAKILSHYKFNNRTSVMLKDRWRTMKRLKLIS",stoichiometry N,[4],2
"eGFP-tagged TRF1 S344A (natural protein, mouse, UniProt P70371 1-421, looked up, insert of the retroviral vector eGFP-TRF1 pWzl-Hygro with S344A; Made by site-directed mutagenesis of the vector of m1 with the primer mTRF1-S344A; also called GFP-TRF1 S344A) MAETVSSAARDAPSREGWTDSDSPEQEEVGDDAELLQCQLQLGTPREMENAELVAEVEAVAAGWMLDFLCLSLCRAFRDGRSEDFRRTRDSAEAIIHGLHRLTAYQLKTVYICQFLTRVASGKALDAQFEVDERITPLESALMIWNSIEKEHDKLHDEIKNLIKIQAVAVCMEIGSFKEAEEVFERIFGDPEFYTPLERKLLKIISQKDVFHSLFQHFSYSCMMEKIQSYVGDVLSEKSSTFLMKAATKVVENEKARTQASKDRPDATNTGMDTEVGLNKEKSVNGQQSTETEPLVDTVSSIRSHKNALSQLKHRRAPSDFSRNEARTGTLQCETTMERNRRTAGRNRLCVSENQPDTDDKSGRRKRQTWLWEEDRILKCGVKKYGEGNWAKILSHYKFNNRTSVMLKDRWRTMKRLKLIS",stoichiometry N,[4],2
"eGFP-tagged TRF1 T330A (natural protein, mouse, UniProt P70371 1-421, looked up, insert of the retroviral vector eGFP-TRF1 pWzl-Hygro with T330A; Made by site-directed mutagenesis of the vector of m1 with the primer mTRF1-T330A; also called GFP-TRF1 T330A) MAETVSSAARDAPSREGWTDSDSPEQEEVGDDAELLQCQLQLGTPREMENAELVAEVEAVAAGWMLDFLCLSLCRAFRDGRSEDFRRTRDSAEAIIHGLHRLTAYQLKTVYICQFLTRVASGKALDAQFEVDERITPLESALMIWNSIEKEHDKLHDEIKNLIKIQAVAVCMEIGSFKEAEEVFERIFGDPEFYTPLERKLLKIISQKDVFHSLFQHFSYSCMMEKIQSYVGDVLSEKSSTFLMKAATKVVENEKARTQASKDRPDATNTGMDTEVGLNKEKSVNGQQSTETEPLVDTVSSIRSHKNALSQLKHRRAPSDFSRNEARTGALQCETTMERNRRTSGRNRLCVSENQPDTDDKSGRRKRQTWLWEEDRILKCGVKKYGEGNWAKILSHYKFNNRTSVMLKDRWRTMKRLKLIS",stoichiometry N,[4],2
"eGFP-tagged TRF1 T248A (natural protein, mouse, UniProt P70371 1-421, looked up, insert of the retroviral vector eGFP-TRF1 pWzl-Hygro with T248A; Made by site-directed mutagenesis of the vector of m1 with the primer mTRF1-T248A; also called GFP-TRF1 T248A) MAETVSSAARDAPSREGWTDSDSPEQEEVGDDAELLQCQLQLGTPREMENAELVAEVEAVAAGWMLDFLCLSLCRAFRDGRSEDFRRTRDSAEAIIHGLHRLTAYQLKTVYICQFLTRVASGKALDAQFEVDERITPLESALMIWNSIEKEHDKLHDEIKNLIKIQAVAVCMEIGSFKEAEEVFERIFGDPEFYTPLERKLLKIISQKDVFHSLFQHFSYSCMMEKIQSYVGDVLSEKSSTFLMKAAAKVVENEKARTQASKDRPDATNTGMDTEVGLNKEKSVNGQQSTETEPLVDTVSSIRSHKNALSQLKHRRAPSDFSRNEARTGTLQCETTMERNRRTSGRNRLCVSENQPDTDDKSGRRKRQTWLWEEDRILKCGVKKYGEGNWAKILSHYKFNNRTSVMLKDRWRTMKRLKLIS",stoichiometry N,[4],2
